Experimental data reported in patent US20130039928A1, “COMPOSITIONS AND METHODS FOR REVERSING CORTICOSTEROID RESISTANCE OR TREATING RESPIRATORY INFECTIONS” (priority 2010, published 2013).
Entries after “also recorded” stand apart in the source; their conditions may differ.

What was measured:
[1] = tested on: secretory leukocyte protease inhibitor (SLPI); settings: alveolar macrophages of patients with COPD, treated with or without sulforaphane
Procedure: (§1) Human alveolar macrophages were purified from individual BAL samples by centrifugation and seeded onto 6-well tissue culture plates. After incubation for 2 h, non-adherent cells were removed and the adherent cells were incubated with R, S-sulforaphane (5 μM; LKT Laboratories, Inc., St. Paul, Minn.) and or DMSO in RPMI 1640 culture medium with 10% FBS and 1% penicillin-streptomycin (Invitrogen, Carlsbad, Calif.). After 16-20 h, adherent cells were scraped, suspended in RPMI 1640 culture media and plated onto 96-well tissue culture plates for bacterial phagocytosis and clearance assays. […] For MARCO antibody-depletion, alveolar macrophages were incubated with human anti-MARCO antibody (1 μg/ml; (Hycult, Uden, The Netherlands) for 4 hours prior to bacterial challenge.

Pseudomonas aeruginosa = test: Phagocytosis assay, FITC-labeled PA, alveolar macrophages; type: cell-based, human
Procedure: as §1
Sputum isolates of nontypeable H. influenzae and P. aeruginosa obtained from patients with COPD at the Department of Veterans Affairs, Western New York Healthcare System were used (S. Sethi, N. Evans, B. J. Grant, T. F. Murphy, N Engl J Med 347, 465 (Aug. 15, 2002); C. S. Berenson, M. A. Garlipp, L. J. Grove, J. Maloney, S. Sethi, J Infect Dis 194, 1375 (Nov. 15, 2006); T. F. Murphy et al., Am J Respir Crit Care Med 177, 853 (Apr. 15, 2008); T. F. Murphy, A. L. Brauer, A. T. Schiffmacher, S. Sethi, Am J Respir Crit Care Med 170, 266 (Aug. 1, 2004)). For bacterial growth, H. influenzae was cultured on chocolate agar or grown in brain heart infusion broth supplemented with 20 μg/mlNAD and 10 μg/ml hemin at 35° C. in 5% CO2. P. aeruginosa was cultured on LB agar plates or in LB broth at 37° C. For FITC-labeling of bacteria, heat inactivated PA and NTHI (10^9 CFU/ml) were resuspended in 1 ml of labeling buffer (0.1 M NaHCO3, pH 9.2) and incubated with fluorescein isothiocyanate (FITC) (Sigma) under constant stiffing in the dark at room temperature for 1 h. Finally, bacteria were washed three times with PBS and dialyzed overnight against PBS. FITC-labeled bacteria were resuspended with PBS at a concentration of 10^9/ml.
Bacterial phagocytosis was quantified using a flow cytometry analysis.

GSH = settings: COPD alveolar macrophages, 5 μM for 16 h
Procedure: (§2) For inducing corticosteroid resistance, PMs were exposed to cigarette smoke condensate (CSC, 100 μg/ml; Murty Pharmaceuticals, Lexington, Ky.) for 16 h. Exposure to S-nitrosoglutathione (GSNO, 10 μM) was limited to 4 h. […] For assessing corticosteroid responsiveness, macrophages were incubated with dexamethasone (1 μM, Sigma) for 1 h followed by LPS (100 ng/ml, Sigma) for additional 4 h.
(§3) HDAC activity was measured using a fluorescent derivative of ε-acetyl-lysine from Enzo life sciences (Farmingdale, N.Y.) according to the manufacturer's recommendations. HDAC2 was immunoprecipitated for analysis of enzymatic activity.

HDAC = settings: COPD alveolar macrophages, versus vehicle
Procedure: as §2, §3

HDAC2 = type: cell-based, human; settings: COPD alveolar macrophages
Procedure: as §2
All immunoblots were performed by using protocols as described previously (Barnes, P. J., N Engl J Med 343, 269-280 (2000)). Rabbit anti-HDAC2 antibody from Santa Cruz Biotechnology (Santa Cruz, Calif.) was used at 1:500 dilutions. Rabbit anti-5-nitroso-cysteine antibody from Alpha diagnostics was used at 1:500 dilutions. Rabbit anti-nitro-tyrosine antibody from Cell Signaling Technology, was used at 1:250 dilution. Rabbit anti-ubiquitin antibody from Santa Cruz Biotechnology (Santa Cruz, Calif.) was used at 1:1000 dilutions. Rabbit anti-GR antibody from Santa Cruz Biotechnology (Santa Cruz, Calif.) was used at a dilution of 1:1000. Rabbit anti-MMP9 antibody from Sigma Aldrich was used at 1:500 dilutions. Rabbit anti-acetyl-lysine antibody from Abcam was used at 1:750 dilutions. Rabbit anti-lamin-B1 from Santa Cruz Biotechnology (Santa Cruz, Calif.) was used at 1:1000 dilutions as a loading control. The Image J program was used for densitometry analyses.
Total RNA was extracted from the cells by lysis and specific binding to a silica membrance (Qiagen RNeasy kit, Qiagen, Valencia, Calif.), and qRT-PCR was performed by using primers and probe sets for human IL-8, NQO1, GCLM, and iNOS (Assay-on-Demand, Applied Biosystems, Foster City, Calif.). A real-time fluorescent PCR system (ABI 7000 Taqman system, Applied Biosystems) was used to perform these assays. β-actin was used as the normalization control.

SNO proteins = settings: anti-SNO immunoblot, verified by DAN assay, vs vehicle
Procedure: S-nitrosylated proteins were detected by using the nitrate/nitrite fluorometric assay kit from Cayman chemicals (Ann Arbor, Mich.) according to the manufacturer's instructions. For HDAC2-specific nitrosylation detection, cells were lysed in buffer (50 mM Tris-HCl, pH 8.0, 150 mM NaCl, 1% Nonidet P-40, 0.5% deoxycholic acid, 0.1% SDS). These lysates were then subjected to immunoprecipitation by using an anti-HDAC2 antibody as described above. The immunoprecipitates were washed twice with lysis buffer and twice with PBS. The pellets were resuspended in 500 μL of PBS. After the addition of 100 μM HgCl2 and 100 μM DAN, the samples were incubated in the dark at 25° C. for 30 minutes, and 1 M NaOH was added. The generated fluorescent triazole from the reaction of the DAN with the NO released from the HDAC2 protein was measured by using an excitation wavelength of 375 nm and an emission wavelength of 450 nm. As a negative control, the antibody alone in lysis buffer was immunoprecipitated. The resulting background fluorescence intensity was subtracted for each experiment.

SMILES: C[S+]([O-])CCCCN=C=S (centres unmarked) [sulforaphane]
- SLPI levels in cell free media [1]: greater levels of SLPI
- phagocytosis of FITC-labeled Pseudomonas aeruginosa (Pseudomonas aeruginosa; COPD alveolar macrophages, compared to vehicle): significantly enhanced phagocytosis
- bacterial phagocytosis (Pseudomonas aeruginosa; Nrf2-siRNA transfected macrophages): failed to do so
- bacterial phagocytosis (Pseudomonas aeruginosa; alveolar macrophages transfected with control ssRNA): enhanced bacterial phagocytosis
- GSH levels (GSH): significantly elevated
- enzymatic activity of total HDAC (HDAC): significantly elevated
- HDAC2 mRNA levels (HDAC2): without altering the levels of HDAC2 mRNA; also recorded: no effect on HDAC2 mRNA expression
- HDAC2 protein levels (HDAC2): up-regulated HDAC2 protein levels
- SNO proteins in lysates (SNO proteins): significant reduction in SNO proteins
- secretory levels of active MMP9 (MMP9): significantly reduced
- levels of S-nitrosylated MMP9 (MMP9; biotin-switch assay): significantly reduced
